Data: patent US20050065099A1, “Treatment of mitochondrial diseases” (priority 2003, published 2005)

system: FRDA fibroblasts; assay: FRDA fibroblast assay for protection from oxidative stress; format: cell-based; details: Homo sapiens, 24 h preincubation, 1 mM BSO, compared to untreated FRDA fibroblasts, read-out: EC50 for reduction of cell death in FRDA fibroblasts
From the text: A cellular assay using FRDA-patient derived fibroblasts (as described by Jauslin, M L et al, Human Molecular Genetics 11; 3055-3063 (2002)); is used to determine the cell protecting effect of the test compounds by analyzing survival of dermal fibroblasts taken from FRDA patients and unaffected normal donors under conditions of partial GSH depletion. Exposure of FRDA fibroblasts to BSO (L-buthionine (S,R)-sulfoximine) under conditions of restricted selenium causes depletion of cellular glutathione (GSH) and severe plasma membrane damage leading to cell death. Preincubation with the test compounds before the addition of BSO is used to determine if they can protect FRDA cells from BSO-mediated cell death.
Primary fibroblasts were derived from donors with a molecular diagnosis of FRDA and control donors with no mitochondrial disease. Lines F2, C2 and C3 were obtained from Coriell Cell Repositories (Camden, N.J., USA; catalog #'s GM04078, GM 08402 and GM08399, respectively). All cell types were diagnosed at the molecular level for intronic GAA triplet repeat length in the trataxin gene using a PCR-based method, according to methods known in the art. […] The cells were seeded in microtiter plates at a density of 4000 cells per 100 μl in growth medium consisting of 25% (v/v) M199 EBS and 64% (v/v) MEM EBS without phenol red (Bioconcept, Allschwil, Switzerland) supplemented with 10% (v/v) fetal calf serum (PAA Laboratories, Linz, Austria), 100 U/ml penicillin, 100 μg/ml streptomycin (PAA Laboratories, Linz, Austria), 10 μg/ml insulin (Sigma, Buchs, Switzerland), 10 μg/ml EGF (Sigma, Buchs, Switzerland), 10 μg/ml bFGF (PreproTech, Rocky Hill, N.J., USA) and 2 mM glutamine (Sigma, Buchs, Switzerland). The cells were incubated in the presence of the various test compounds for 24 h before addition of 1 mM BSO (L-buthionine (S,R)-sulfoximine).
Cell viability was measured after the first signs of toxicity appeared in the BSO-treated controls (typically after 16-48 h). The cells were stained for 60 min at room temperature in PBS with 1.2 μm calceinAM and 4 μm ethidium homodimer (Live/Dead assay, Molecular Probes, Eugene, Oreg., USA). Fluorescence intensity was measured with a Gemini Spectramax XS spectrofluorimeter (Molecular Devices, Sunnyvale, Calif., USA) using excitation and emission wavelengths of 485 and 525 nm, respectively.

Compound | EC50 [µM]
Cc1c(C)c2c(c(CCC(C)C)c1O)CCC(C)(C)O2 [2,2,7,8-Tetramethyl-5-(3-methyl-butyl)-chroman-6-ol] | 0.01 to 6
CC(C)=CCc1c(O)c(C)c(C)c2c1CCC(C)(CCCl)O2 (stereo not shown) [2-(2-Chloro-ethyl)-2,7,8-trimethyl-5-(3-methyl-but-2-enyl)-chroman-6-ol] | 0.01 to 6
Cc1c(O)cc2c(c1C)OC(C)(CCCl)CC2 (stereo not shown) [2-(2-chloro-ethyl)-2,7,8-trimethyl-chroman-6-ol] | 0.01 to 6
Cc1c(C)c2c(c(CSCC(NC(=O)CCC(N)C(=O)O)C(=O)NCC(=O)O)c1O)CCC(C)(CCCC(C)CCCC(C)CCCC(C)C)O2 (stereo not shown) [2-Amino-4-{1-(carboxymethyl-carbamoyl)-2-[6-hydroxy-2,7,8-trimethyl-2-(4,8,12-trimethyl-tridecyl)-chroman-5-ylmethylsulfanyl]-ethylcarbamoyl}-butyric acid] | 0.01 to 6
Cc1c(O)cc2c(c1C)OC(C)(CCC(=O)NC(CCC(=O)NC(CS)C(=O)NCC(=O)O)C(=O)O)CC2 (stereo not shown) [4-[1-(Carboxymethyl-carbamoyl)-2-mercapto-ethylcarbamoyl]-2-[3-(6-hydroxy-2,7,8-trimethyl-chroman-2-yl)-propionylamino]-butyric acid] | 0.01 to 6
Cc1c(O)cc2c(c1C)OC(C)(CCCC1SC(=O)NC1=O)CC2 (stereo not shown) [5-[3-(6-Hydroxy-2,7,8-trimethyl-chroman-2-yl)-propyl]-thiazolidine-2,4-dione] | 0.01 to 6
Cc1cc(O)cc2c1OC(C)(CCCC(C)CCCC(C)CCCC(C)C)CC2 (stereo not shown) [Delta tocopherol, 2,8-dimethyl-2-(4,8,12-trimethyl-tridecyl)-chroman-6-ol] | 0.01 to 6
CC(C)=CCCC(C)=CCCC(C)=CCCC1(C)CCc2cc(O)cc(C)c2O1 (stereo not shown) [Delta tocotrienol, 2,8-dimethyl-2-(4,8,12-trimethyl-trideca-3,7,11-trienyl)-chroman-6-ol] | 0.01 to 6
Cc1c(O)cc2c(c1C)OC(C)(CCCC(C)CCCC(C)CCCC(C)C)CC2 (stereo not shown) [Gamma-tocopherol, 2,7,8-trimethyl-2-(4,8,12-trimethyltridecyl)-6-chromanol] | 0.01 to 6
CC(C)=CCCC(C)=CCCC(C)=CCCC1(C)CCc2cc(O)c(C)c(C)c2O1 (stereo not shown) [Gamma-tocotrienol, 2,7,8-trimethyl-2-(4,8,12-trimethyl-trideca-3,7,11-trienyl)-chroman-6-ol] | 0.01 to 6

system: dopaminergic neuronal cell line; assay: High glutamate-induced oxidative stress assay (HGOS); format: cell-based; details: Mus musculus; 30 mM glutamate, 16 hrs, Cell Tracker Green; read-out: EC50 for protection against HGOS cell injury and cell death
From the text: Protection against redox stress can be further evaluated in cell culture using high glutamate induced oxidative stress (HGOS) in mouse dopaminergic cell lines. The cytotoxic effect of glutamate is not due to excitotoxicity, as this cell line is devoid of inotropic glutamate receptors. Rather, the glutamate-induced toxicity of dopaminergic cells is associated with an inhibition of cystine transport which subsequently leads to depletion of intracellular glutathione (GSH) levels (Murphy T. H., et al. Neuron 2, 1547-1558, 1989), activation of neuronal 12-lipoxygenase (Li, Y. et al., Neuron 19,453-463, 1997), increased ROS production (Tan S. et al., J. Cell Biol. 141, 1423-1432, 1998) and elevated intracellular Ca^2+ (Li, Y. et al., see supra). Some molecules were measured for their ability to protect such cells against glutamate-induced stress and the assay is detailed in Examples.
This procedure was used to induce high glutamate-induced oxidative stress (HGOS) in a dopaminergic neuronal cell line. Using this assay the potency and efficacy of test articles against HGOS neuronal cell injury and cell death was established in a high throughput manner.
The cells were seeded into 96-well plates at a density of 2000 per well and left to grow for 72 hours in a 33° C. incubator with 5% CO2 in air atmosphere. The passage number of the cells for each assay experiment were no later than p11 in order to minimize experimental variation.
All compounds were dissolved in DMEM-No Glu containing 1 mM glucose, 30 mM glutamate and 1× Pen/Strep. DMEM-No Glu with 1 mM glucose and 1×P/S was used as the negative control, DMEM-No Glucose with 1 mM glucose, […] was used as a positive control and 100 μM Glutathione was added to the positive control as a standard. All of the procedures for this involving the making and dilution of compounds were performed using aseptic conditions and with minimal light.
The plates were removed from the incubator and examined under the microscope for morphological appearance and density. Using an aseptic technique and an 8-channel aspirator the media was carefully removed from the cells and replaced with 200 μl of 1×HBSS. This was done as quickly as possible to prevent the cells drying out. The plates were then placed in the humidified 37° C. incubators of the Biomek 2000 Side Loader. Four plates were washed at a time so as to minimize the time that the cells were sitting in 1×HBSS prior to addition of the compound test solution.
The Beckman Biomek workstations were used to load the compounds and controls from the mother plates onto the cell plates that were prewashed with HBSS under sterile conditions. The plates were incubated in the upper HTS incubator at 37° C. in 5% CO2 for exactly 16 hrs. The following day, using the Beckman Biomek workstations, the plates were removed from the incubator. Using Cell Tracker Addition, the compounds were removed from the plates, washed once with […] of pre-warmed 1×HBSS and then 100 μL of 5 μM Cell Tracker Green was added to each well. The plates were incubated at 37° C. for 30 min to allow the dye to enter the cell and be cleaved by the esterases. After washing the cells twice with prewarmed 1×HBSS, the plates were read with the 485 excitation; 538 emission filter pair on a Fluoroskan.

Compound | EC50 [µM]
Cc1c(C)c2c(c(C)c1O)C=CC(C)(C)O2 [2,2,5,7,8-Pentamethyl-2H-chromen-6-ol] | ≤ 5
Cc1c(O)c(C)c([N+](=O)[O-])c2c1CCC(C)(C)O2 [2,2,5,7-Tetramethyl-8-nitro-chroman-6-ol] | ≤ 5
Cc1cc(O)c(C)c2c1OC(C)(C)CC2 [2,2,5,8-Tetramethyl-chroman-6-ol] | ≤ 5
Cc1c(C)c2c(c(CCC(C)C)c1O)CCC(C)(C)O2 [2,2,7,8-Tetramethyl-5-(3-methyl-butyl)-chroman-6-ol] | ≤ 5
Cc1c(O)cc2c(c1C)OC(C)(C)CC2 [2,2,7,8-Tetramethyl-chroman-6-ol] | ≤ 5
CC(C)=CCc1c(O)c(C)c(C)c2c1CCC(C)(CCCl)O2 (stereo not shown) [2-(2-Chloro-ethyl)-2,7,8-trimethyl-5-(3-methyl-but-2-enyl)-chroman-6-ol] | ≤ 5
Cc1c(O)cc2c(c1C)OC(C)(CCCl)CC2 (stereo not shown) [2-(2-chloro-ethyl)-2,7,8-trimethyl-chroman-6-ol] | ≤ 5
Cc1c(O)cc2c(c1C)OC(C)(CCCCl)CC2 (stereo not shown) [2-(3-Chloro-propyl)-2,7,8-trimethyl-chroman-6-ol] | ≤ 5
Cc1c(C)c2c(c(CC(CO)CO)c1O)CCC(C)(C)O2 [2-(6-Hydroxy-2,2,7,8-tetramethyl-chroman-5-ylmethyl)-propane-1,3-diol] | ≤ 5
Cc1c(C)c2c(c(C)c1O)CCC(C)(COCC(=O)Nc1cccc(C(F)(F)F)c1)O2 (stereo not shown) [2-(6-Hydroxy-2,5,7,8-tetramethyl-chroman-2-ylmethoxy)-N-(3-trifluoromethyl-phenyl)-acetamide] | ≤ 5
C#CC1(C)CCc2c(C)c(O)c(C)c(C)c2O1 (stereo not shown) [2-Ethynyl-2,5,7,8-tetramethyl-chroman-6-ol] | ≤ 5
Cc1c(C)c2c(c(C)c1O)CCC(C)(CO)O2 (stereo not shown) [2-Hydroxymethyl-2,5,7,8-tetramethyl-chroman-6-ol] | ≤ 5
Cc1c(C)c2c(c(Br)c1O)CCC(C)(CCC(=O)O)O2 (stereo not shown) [3-(5-Bromo-6-hydroxy-2,7,8-trimethyl-chroman-2-yl)-propionic acid] | ≤ 5
Cc1c(O)cc2c(c1C)OC1(C)CCCC2C1 (stereo not shown) [5,6,9-Trimethyl-8-oxa-tricyclo[7.3.1.0^2,7]trideca-2,4,6-trien-4-ol] | ≤ 5
Cc1c(C)c2c(c(C(C)O)c1O)CCC(C)(C)O2 (stereo not shown) [5-(1-Hydroxy-ethyl)-2,2,7,8-tetramethyl-chroman-6-ol] | ≤ 5
Cc1c(C)c2c(c(CCO)c1O)CCC(C)(C)O2 [5-(2-Hydroxy-ethyl)-2,2,7,8-tetramethyl-chroman-6-ol] | ≤ 5
Cc1c(C)c2c(c(CN3CCN(Cc4ccccc4)CC3)c1O)CCC(C)(CCCC(C)CCCC(C)CCCC(C)C)O2 (stereo not shown) [5-(4-Benzyl-piperazin-1-ylmethyl)-2,7,8-trimethyl-2-(4,8,12-trimethyl-tridecyl)-chroman-6-ol] | ≤ 5
Cc1c(C)c2c(c(CO)c1O)CCC(C)(C)O2 [5-Hydroxymethyl-2,2,7,8-tetramethyl-chroman-6-ol] | ≤ 5
Cc1c(O)cc2c(c1C)OC(C)(CCCC1SC(=O)NC1=O)CC2 (stereo not shown) [5-[3-(6-Hydroxy-2,7,8-trimethyl-chroman-2-yl)-propyl]-thiazolidine-2,4-dione] | ≤ 5
Cc1c(O)c(C)c2c(c1C=O)OC(C)(C)CC2 [6-Hydroxy-2,2,5,7-tetramethyl-chroman-8-carbaldehyde] | ≤ 5
Cc1c(C)c2c(c(C)c1O)CCC(C)(C(=N)N)O2 (stereo not shown) [6-Hydroxy-2,5,7,8-tetramethyl-chroman-2-carboxamidine] | ≤ 5
COc1cccc2c(O)cc3c(c12)OC(C)(C)CC3 [10-Methoxy-2,2-dimethyl-3,4-dihydro-2H-benzo[h]chromen-6-ol] | ≤ 5
Cc1c(C)c2c(c(C)c1O)CCC(C)(C(=O)N1CCNCC1)O2 (stereo not shown) [(6-Hydroxy-2,5,7,8-tetramethyl-chroman-2-yl)-piperazin-1-yl-methanone] | ≤ 5
CC(=O)N(C)CC1(C)CCc2c(C)c(O)c(C)c(C)c2O1 (stereo not shown) [N-(6-Hydroxy-2,5,7,8-tetramethyl-chroman-2-ylmethyl)-N-methyl-acetamide] | ≤ 5
